Test results taken from patent US6967102B1, “Nitric oxide manipulation of muscle satellite cell activation” (University of Manitoba, priority 1999, dated 2005).
Entries after “also recorded” stand apart in the source; their conditions may differ.

How the values were obtained:
[1] = tested on: satellite cells; assay: Cell yield time course 0–30 min after crush injury of right tibialis anterior, normal mice; format: in vivo, normal mice (C57BL/6)
[2] = Muscle weight to body weight (edema) and haemorrhage after crush injury, normal mice; format: in vivo, normal mice (C57BL/6); settings: ip treatment 30 min before crush; 0–30 min after injury
[3] = Muscle weight to body weight (edema) and haemorrhage after crush injury, mdx mice; format: in vivo; settings: L-NAME ip 30 min before crush

SMILES: COC(=O)[C@@H](N)CCCNC(=N)N[N+](=O)[O-] [L-NAME, Nω-nitro-L-arginine methyl ester]
- time of delayed peak RTA yield after injury ([1]; L-NAME 3 mg/kg, one experiment): < 10 min
- LTA cell yield at 10 min relative to 0 min ([1]; L-NAME 7.5 mg/kg): 2 fold
- RTA cell yield at 10 min relative to 0 min ([1]; L-NAME 7.5 mg/kg): 3.5 fold
- time after injury until which the increased RTA cell yield is delayed ([1]; L-NAME 7.5 mg/kg ip 30 min before crush): 10 min
- initial injury-induced rise in RTA cell yield ([1]; L-NAME 7.5 mg/kg ip 30 min before crush, 0 min): preventing the initial injury-induced rise in RTA yield; also recorded: absent after L-NAME
- LTA cell yield lower than in saline-treated mice ([1]; L-NAME 7.5 mg/kg, 0 min): 15%
- RSOL cell yield lower than in saline-treated mice ([1]; L-NAME 7.5 mg/kg, 0 min): 50%
- fewer cells isolated from RTA than LTA ([1]; L-NAME 7.5 mg/kg, 0 min): 30%
- time of delayed peak RTA yield after injury ([1]; L-NAME 10 or 12.5 mg/kg, one experiment at each dose): > 10 min
- peak cell yield in RTA ([1]; L-NAME ip 30 min before crush): delayed (not reduced)
- peak in cell yield from LTA (at 10 min.) ([1]; L-NAME ip 30 min before crush): reduced but not delayed; also recorded: reduced by L-NAME treatment
- muscle weight profile (RTA relative to LTA; muscle weight as proportion of body weight) [2]: RTA weight increased only at 10 min. relative to LTA
- increase in RTA weight after injury [3]: abolished the increase in RTA weight for 30 min
